From patent US20260167656A1, “PHOSPHORAMIDATE COMPOUNDS AND USES THEREOF” (ALLORION THERAPEUTICS INC, priority 2022, published 2026)

Experiments:
[1] = system: non-small cell lung cancer cell line H460; test: H460 proliferation assay in the presence of 3 uM ASP9521 (AKR1C3 specific inhibitor); format: cell-based, human; settings: H460 cells, CellTiter-Glo, 72 hours, in the presence of 3 uM ASP9521 added 4 hours prior to compounds; read-out: CTG H460: Avg IC50 (nM) [Assay Condition: ASP9521]
In short: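 AKR1C3 blocked with 3 uM ASP9521 given 4 h ahead of test compounds. H460 cells, plated 24 h earlier, were then treated for 72 h at 37 °C in 5% CO2. CellTiter-Glo luminescence gave viability.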

[2] = system: non-small cell lung cancer cell line H460; test: In vitro human cancer cell line cytotoxicity (proliferation) assay in H460, CellTiter-Glo, 72 hours; format: cell-based; settings: H460 cells, DMSO condition (no AKR1C3 inhibitor), read-out: CTG H460: Avg IC50 (nM) [Assay Condition: DMSO]
In short: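 IC50s in nM come from CellTiter-Glo viability read after 72 h of compound exposure. Compounds went in from 10 mM DMSO stocks onto H460 cells, which had been plated at 3×10^3 per well and grown 24 h beforehand at 37 °C, 5% CO2.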

SMILES: CC(C)Oc1cc(Oc2c([N+](=O)[O-])ccc3c2CCC3OP(=O)(N2CC2)N2CC2)ccc1F (centres unmarked) [Example 487]
- IC50 [1]: 1010 nM
- IC50 [2]: < 10 nM

SMILES: O=[N+]([O-])c1ccc2c(c1Oc1ccc(F)c(OCC3CC3)c1)CC[C@H]2OP(=O)(N1CC1)N1CC1 [Example 488]
- IC50 [1]: 857 nM
- IC50 ([2]; Homo sapiens, NCI-H460, 72 h): < 10 nM

SMILES: O=[N+]([O-])c1ccc2c(c1Oc1ccc(F)c(OCC3CC3)c1)CC[C@@H]2OP(=O)(N1CC1)N1CC1 [Example 489]
- IC50 [1]: 1660 nM
- IC50 ([2]; Homo sapiens, NCI-H460, 72 h): < 10 nM

SMILES: O=[N+]([O-])c1ccc2c(c1Oc1ccc(OC3CCCC3)cc1)CCC2OP(=O)(N1CC1)N1CC1 (centres unmarked) [Example 490]
- IC50 [1]: 788 nM
- IC50 [2]: < 10 nM

SMILES: O=[N+]([O-])c1ccc2c(c1Oc1ccc(OC3CCCC3)cc1)CCC2OP(=O)(N1CC1)N1CC1 (centres unmarked) [Example 491]
- IC50 [1]: 1940 nM
- IC50 [2]: < 10 nM

SMILES: O=[N+]([O-])c1ccc2c(c1Oc1ccc(OC3COC3)cc1)CC[C@H]2OP(=O)(N1CC1)N1CC1 [Example 492]
- IC50 [1]: 778 nM
- IC50 ([2]; Homo sapiens, NCI-H460, 72 h): < 10 nM

SMILES: CCOc1cc(Oc2c([N+](=O)[O-])ccc3c2CC[C@@H]3OP(=O)(N2CC2)N2CC2)ccc1F [Example 493]
- IC50 [1]: 341 nM
- IC50 ([2]; Homo sapiens, NCI-H460, 72 h): < 10 nM

SMILES: O=[N+]([O-])c1ccc2c(c1Oc1ccc(F)c(OCC(F)(F)F)c1)CC[C@@H]2OP(=O)(N1CC1)N1CC1 [Example 494]
- IC50 [1]: 160 nM
- IC50 ([2]; Homo sapiens, NCI-H460, 72 h): < 10 nM

SMILES: O=[N+]([O-])c1ccc2c(c1Oc1ccc(F)c(OC3CCOCC3)c1)CC[C@@H]2OP(=O)(N1CC1)N1CC1 [Example 495]
- IC50 [1]: 635 nM
- IC50 ([2]; Homo sapiens, NCI-H460, 72 h): < 10 nM

SMILES: O=[N+]([O-])c1ccc2c(c1Oc1ccc(F)c(OC3CCOCC3)c1)CC[C@H]2OP(=O)(N1CC1)N1CC1 [Example 496]
- IC50 [1]: 783 nM
- IC50 ([2]; Homo sapiens, NCI-H460, 72 h): < 10 nM

SMILES: Cn1cc(Oc2cc(Oc3c([N+](=O)[O-])ccc4c3CC[C@@H]4OP(=O)(N3CC3)N3CC3)ccc2F)cn1 [Example 497]
- IC50 [1]: 1010 nM
- IC50 ([2]; Homo sapiens, NCI-H460, 72 h): < 10 nM

SMILES: CC(C)COc1cc(Oc2c([N+](=O)[O-])ccc3c2CC[C@@H]3OP(=O)(N2CC2)N2CC2)ccc1F [Example 498]
- IC50 [1]: 899 nM
- IC50 ([2]; Homo sapiens, NCI-H460, 72 h): < 10 nM

SMILES: CC(C)COc1cc(Oc2c([N+](=O)[O-])ccc3c2CC[C@H]3OP(=O)(N2CC2)N2CC2)ccc1F [Example 499]
- IC50 [1]: 918 nM
- IC50 ([2]; Homo sapiens, NCI-H460, 72 h): < 10 nM

SMILES: Cc1ncn(-c2cccc(Oc3c([N+](=O)[O-])ccc4c3CC[C@@H]4OP(=O)(N3CC3)N3CC3)c2)n1 [Example 500]
- IC50 [1]: 1300 nM
- IC50 ([2]; Homo sapiens, NCI-H460, 72 h): < 10 nM

SMILES: COc1cc(OCC2CC2)cc(Oc2c([N+](=O)[O-])ccc3c2CC[C@@H]3OP(=O)(N2CC2)N2CC2)c1 [Example 501]
- IC50 [1]: 1080 nM
- IC50 ([2]; Homo sapiens, NCI-H460, 72 h): < 10 nM

SMILES: COc1ccc(Oc2c([N+](=O)[O-])ccc3c2CC[C@@H]3OP(=O)(N2CC2)N2CC2)cc1OCC1CC1 [Example 502]
- IC50 [1]: 546 nM
- IC50 ([2]; Homo sapiens, NCI-H460, 72 h): < 10 nM

SMILES: O=[N+]([O-])c1ccc2c(c1Oc1cc(F)cc(OCC3CC3)c1)CC[C@@H]2OP(=O)(N1CC1)N1CC1 [Example 503]
- IC50 [1]: 1660 nM
- IC50 ([2]; Homo sapiens, NCI-H460, 72 h): < 10 nM

SMILES: CS(=O)(=O)c1ccc(Oc2c([N+](=O)[O-])ccc3c2CCC3OP(=O)(N2CC2)N2CC2)cc1 (centres unmarked) [Example 504]
- IC50 [1]: 288 nM
- IC50 [2]: < 10 nM

SMILES: CSc1ccc(Oc2c([N+](=O)[O-])ccc3c2CCC3OP(=O)(N2CC2)N2CC2)cc1 (centres unmarked) [Example 505]
- IC50 [1]: 327 nM
- IC50 [2]: < 10 nM

SMILES: CS(=O)(=O)c1ccc(Oc2c([N+](=O)[O-])ccc3c2CCC3OP(=O)(N2CC2)N2CC2)cc1 (centres unmarked) [Example 506]
- IC50 [1]: 625 nM
- IC50 [2]: < 10 nM

SMILES: CSc1cc(Oc2c([N+](=O)[O-])ccc3c2CCC3OP(=O)(N2CC2)N2CC2)ccc1F (centres unmarked) [Example 507]
- IC50 [1]: 952 nM
- IC50 [2]: < 10 nM

SMILES: CS(=O)(=O)c1cc(Oc2c([N+](=O)[O-])ccc3c2CCC3OP(=O)(N2CC2)N2CC2)ccc1F (centres unmarked) [Example 508]
- IC50 [1]: 519 nM
- IC50 [2]: < 10 nM

SMILES: Cn1cc(Oc2c([N+](=O)[O-])ccc3c2CCC3OP(=O)(N2CC2)N2CC2)ccc1=O (centres unmarked) [Example 509]
- IC50 [1]: 844 nM
- IC50 [2]: < 10 nM

SMILES: O=[N+]([O-])c1ccc2c(c1Oc1ccc(F)c(Br)c1)CCC2OP(=O)(N1CC1)N1CC1 (centres unmarked) [Example 510]
- IC50 [1]: 535 nM
- IC50 [2]: < 10 nM

SMILES: O=c1ccc(Oc2c([N+](=O)[O-])ccc3c2CCC3OP(=O)(N2CC2)N2CC2)cn1C1CC1 (centres unmarked) [Example 511]
- IC50 [1]: 429 nM
- IC50 [2]: < 10 nM

SMILES: O=[N+]([O-])c1ccc2c(c1Oc1ccc(S(=O)(=O)C3CC3)cc1)CC[C@@H]2OP(=O)(N1CC1)N1CC1 [Example 512]
- IC50 [1]: 83.3 nM
- IC50 ([2]; Homo sapiens, NCI-H460, 72 h): < 10 nM

SMILES: O=[N+]([O-])c1ccc2c(c1Oc1ccc(F)c(S(=O)(=O)C3CC3)c1)CC[C@@H]2OP(=O)(N1CC1)N1CC1 [Example 513]
- IC50 [1]: 682 nM
- IC50 ([2]; Homo sapiens, NCI-H460, 72 h): < 10 nM

SMILES: O=[N+]([O-])c1cc2c(cc1Oc1ccc(-c3ccc(F)cc3)c(F)c1)C(OP(=O)(N1CC1)N1CC1)CC2 (centres unmarked) [Example 514]
- IC50 [1]: 993 nM
- IC50 [2]: < 10 nM
